Laboratory results reported in patent US20250179033A1 (priority 2021, published 2025).

Key:
Format in all cases: in vitro ADME
Caco-2 permeability = conditions: human, Caco-2, pH 7.4
Experimental: (§1) Caco-2 Permeability: Caco-2 cells (ATCC®, Manassas, Virginia, United States of America) were grown on 24-well (pore size: 0.4 μm) polycarbonate filters. The monolayers were pre-incubated with pre-warmed HBSS (Hank's balanced salt solution) containing 2.5% HEPES buffer (pH 7.4) for 0.5 h at 37° C. After pre-incubation, the buffer was removed, and the experimental compounds were added to reach a final concentration of 10 μM. 2% bovine serum albumin (BSA) was added to the receiver buffer for the study. The total volume was 400 μL for the apical (A) side and 1200 μL for the basolateral (B) side. For apical to basolateral transport study (A-B), 100 μL each was collected from both sides for sample analysis at the start of the assay and then 200 μL was collected from the […] at 90 minutes (end of the study). The same timepoints and amounts were used for the basolateral to apical transport study (B-A).
(§2) The apparent permeability coefficient (Papp) was calculated from the following equation.
(§3) • v=Volume of the receiver cell • A=Exposed surface area (0.64 cm^2) • C=Initial donor concentration • ∂C/∂t=Change in receiver concentration over time

CYP1A2 = biological target: T1, CYP1A2 (Homo sapiens, UniProt P05177); experiment: Human CYP inhibition in human liver microsomes; conditions: substrate phenacetin, read-out: CYP inhibition IC50, 1A2
T1 sequence (P05177 1-516): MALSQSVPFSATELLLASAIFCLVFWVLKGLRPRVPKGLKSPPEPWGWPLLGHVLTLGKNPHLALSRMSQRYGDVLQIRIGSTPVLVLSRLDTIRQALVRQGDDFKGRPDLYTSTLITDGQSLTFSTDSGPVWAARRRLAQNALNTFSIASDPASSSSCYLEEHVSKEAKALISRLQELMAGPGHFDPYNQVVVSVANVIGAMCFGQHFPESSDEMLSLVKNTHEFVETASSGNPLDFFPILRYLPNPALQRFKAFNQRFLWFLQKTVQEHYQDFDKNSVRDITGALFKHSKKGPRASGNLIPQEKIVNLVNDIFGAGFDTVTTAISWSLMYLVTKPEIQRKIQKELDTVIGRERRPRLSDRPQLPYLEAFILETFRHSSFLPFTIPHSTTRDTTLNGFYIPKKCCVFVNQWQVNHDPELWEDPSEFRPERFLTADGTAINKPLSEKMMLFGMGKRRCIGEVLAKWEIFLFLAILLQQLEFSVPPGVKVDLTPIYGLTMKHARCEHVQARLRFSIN
Experimental: (§4) Study samples (containing either control inhibitor or test compound) were added into the tubes, vortexed gently and pre-incubated for 5 min at 37° C. 20 μL of NADPH solution was aliquoted into all tubes, then vortexed to start the reaction and to assure adequate mixture of the NADPH. After mixing, the tubes were incubated for 20 min at 37° C. in a shaking water bath and then quenched in […] formic acid/acetonitrile solution. After quenching, the samples were vortexed vigorously for 1 min and centrifuged at 4,000 rpm for 15 min (4° C.). 100 μL of supernatant was transferred to 0.65 ml tubes for LCMS analysis by the bioanalytical method described earlier. The CYP450 substrates and control inhibitors for each enzyme was as follows: CYP1A2 (phenacetin, naphthoflavone), CYP2C9 (diclofenac, sulfaphenazole), CYP2C19 (omeprazole, tranylcypromine), CYP2D6 (dextromethorphan, quinidine), CYP3A4 (midazolam, ketoconazole).

CYP2C9 = CYP2C9 (Homo sapiens, UniProt P11712); experiment: Human CYP inhibition in human liver microsomes; conditions: substrate diclofenac, read-out: CYP inhibition IC50, 2C9
CYP2C9, sequence (P11712 whole entry): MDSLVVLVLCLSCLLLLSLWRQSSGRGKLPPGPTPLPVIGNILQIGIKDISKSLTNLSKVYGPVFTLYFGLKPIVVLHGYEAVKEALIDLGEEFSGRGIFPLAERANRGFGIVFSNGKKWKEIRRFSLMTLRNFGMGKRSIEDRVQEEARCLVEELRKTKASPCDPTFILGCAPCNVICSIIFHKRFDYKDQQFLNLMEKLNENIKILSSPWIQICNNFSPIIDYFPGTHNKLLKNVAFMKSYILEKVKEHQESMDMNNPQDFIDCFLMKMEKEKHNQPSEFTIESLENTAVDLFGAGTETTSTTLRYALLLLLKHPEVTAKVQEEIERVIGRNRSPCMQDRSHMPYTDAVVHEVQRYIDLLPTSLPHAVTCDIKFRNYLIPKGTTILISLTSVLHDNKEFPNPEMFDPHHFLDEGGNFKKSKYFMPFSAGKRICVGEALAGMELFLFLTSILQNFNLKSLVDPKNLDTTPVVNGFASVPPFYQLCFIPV
Experimental: as §4

CYP2C19 = CYP2C19 (Homo sapiens, UniProt P33261); experiment: Human CYP inhibition in human liver microsomes; conditions: substrate omeprazole, read-out: CYP inhibition IC50, 2C19
CYP2C19, sequence (P33261 whole entry): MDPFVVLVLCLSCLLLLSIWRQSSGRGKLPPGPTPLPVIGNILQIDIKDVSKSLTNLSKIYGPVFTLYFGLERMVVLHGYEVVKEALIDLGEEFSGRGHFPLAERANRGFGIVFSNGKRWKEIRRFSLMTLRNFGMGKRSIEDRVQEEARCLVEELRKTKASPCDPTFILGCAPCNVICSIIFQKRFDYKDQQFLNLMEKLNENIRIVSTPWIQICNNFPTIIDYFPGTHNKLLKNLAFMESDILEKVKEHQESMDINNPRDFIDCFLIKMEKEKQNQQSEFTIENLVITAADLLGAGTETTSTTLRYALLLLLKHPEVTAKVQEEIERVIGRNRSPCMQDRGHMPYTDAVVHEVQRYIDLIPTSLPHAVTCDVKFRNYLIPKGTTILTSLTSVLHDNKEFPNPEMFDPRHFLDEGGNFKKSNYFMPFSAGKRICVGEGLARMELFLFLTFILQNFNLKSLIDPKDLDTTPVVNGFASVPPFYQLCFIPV
Experimental: as §4

Caco-2 cells = experiment: Caco-2 permeability; conditions: 10 μM
Experimental: as §1, §2, §3

In the case of `N#C/C=C/c1ccc2c(S(=O)(=O)n3nc(Nc4ccc(C#N)c(Cl)c4)nc3N)cccc2c1` [Compound 20, 4-[[5-amino-1-[[6-[2-cyanovinyl]-1-naphthyl]sulfonyl]-1,2,4-triazol-3-yl]amino]-2-chloro-benzonitrile], the efflux ratio at 90 min, 10 μM (Caco-2 permeability) is reported as 1, the Papp A→B at 90 min, 10 μM (Caco-2 permeability; 10 μM, 90 minutes) is reported as 4 nm/s and the Papp B→A at 90 min, 10 μM (Caco-2 permeability; 10 μM, 90 minutes) is reported as 4 nm/s. The IC50 (CYP1A2) was over 50 µM, the IC50 (CYP2C9) was 1.42 µM and the IC50 (CYP2C19) was 10.6 µM.
With `Nc1nc(Nc2ccc(Cl)cc2)nn1S(=O)(=O)c1ccc2ccccc2c1` [Compound 1, N3-(4-chlorophenyl)-1-(2-naphthylsulfonyl)-1,2,4-triazole-3,5-diamine] the “Caco-2 Papp A-B” value (Caco-2 cells; 90 minutes) was 1.38 nm/s, the “Caco-2 Papp B-A” value (Caco-2 cells; 90 minutes) was 1.22 nm/s and the “Caco-2 Efflux ratio” value (Caco-2 cells; human, Caco-2, 90 min, pH 7.4) was “(×10−6 cm/s) Efflux ratio = 0.883”.
